Experimental data as given in patent US20200215036A1, “BENZIMIDAZOLE COMPOUNDS AS KINASE INHIBITORS” (GB005, Inc., priority 2017, published 2020).

Columns and labels:
ITK = biological target: T1, ITK (Homo sapiens, UniProt Q08881); experiment: Biochemical kinase assay (Nanosyn, micro-fluidic detection), ITK; conditions: 12 concentrations, 3 hours incubation, 1 uM peptide substrate
T1 sequence (Q08881 1-620): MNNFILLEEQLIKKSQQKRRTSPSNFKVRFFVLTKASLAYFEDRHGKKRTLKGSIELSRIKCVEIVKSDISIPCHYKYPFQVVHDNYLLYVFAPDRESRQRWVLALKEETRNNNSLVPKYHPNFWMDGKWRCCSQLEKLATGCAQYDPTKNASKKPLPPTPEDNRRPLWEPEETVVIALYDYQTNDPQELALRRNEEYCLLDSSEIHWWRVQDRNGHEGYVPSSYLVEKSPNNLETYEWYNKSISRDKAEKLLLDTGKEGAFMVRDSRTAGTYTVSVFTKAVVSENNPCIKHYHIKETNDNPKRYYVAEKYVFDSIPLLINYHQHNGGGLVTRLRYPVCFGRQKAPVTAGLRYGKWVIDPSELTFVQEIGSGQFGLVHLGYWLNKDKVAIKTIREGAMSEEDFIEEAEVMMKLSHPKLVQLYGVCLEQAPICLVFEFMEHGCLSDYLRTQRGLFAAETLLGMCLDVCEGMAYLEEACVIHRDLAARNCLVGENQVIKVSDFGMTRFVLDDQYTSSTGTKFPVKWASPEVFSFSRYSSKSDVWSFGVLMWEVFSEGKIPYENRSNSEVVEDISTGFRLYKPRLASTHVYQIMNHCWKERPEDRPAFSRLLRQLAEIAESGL
Procedure: (§1) The in vitro kinase assays were performed at Nanosyn (Santa Clara, Calif.) utilizing micro-fluidic detection Technology. The test compounds were serially pre-diluted in DMSO and added, by the acoustic dispensing (Labcyte® 550), directly to 384we11 assay plates into 10 uL of a buffer with enzyme comprising: 100 mM HEPES, pH7.5, 5 mM MgCl2, 0.1% bovine serum albumin, 1 mM DTT, 0.01% Triton X-100 and the enzyme. Final DMSO concentration was maintained at 1% in all samples, including the controls. The reactions were initiated by addition of ATP (to the specified concentration) and the fluorescently labeled peptide substrate to a final concentration of 1 uM, and incubated for 3 hours at […]. Following incubation, the reactions were quenched by addition of 40 μL of termination buffer (100 mM HEPES, pH7.5, 0.01% Triton X-100, 50 mM EDTA). Terminated plates were analyzed using Caliper LabChip® 3000 microfluidic electrophoresis instrument (Caliper Life Sciences/Perkin Elmer). The enzymatic modification of the peptide substrate (phosphorylation) results in a change of net charge enabling electrophoretic separation of product from substrate. As substrate and product are separated by electrophoresis, two peaks of fluorescence are observed. Change in the relative fluorescence intensity of the substrate and product peaks was the parameter measured, reflecting enzyme activity. In the presence of inhibitor, the ratio between product and substrate is altered: signal of the product decreases, while the signal of the substrate increases. Activity in each test sample was determined as the product to sum ratio (PSR): P/(S+P), where P is the peak height of the product and S is the peak height of the FAM-cAMP substrate. For each compound, enzyme activity was measured at 12 concentrations spaced by 3× dilution intervals. Negative control samples (0%−inhibition in the absence of inhibitor, DMSO only) and positive control samples (100%−inhibition, in the absence of enzyme or in the presence of control inhibitor) were assembled in replicates of four and were used to calculate %−inhibition values in the presence of compounds. Percent inhibition (Pinh) was determined using the following equation: Pinh=(PSR0%−PSRinh)/(PSR0%−PSR100%)*100, where PSRinh is the product sum ratio in the presence of inhibitor, PSR0% is the product sum ratio in the absence of inhibitor and PSR100% is the product sum ratio in 100%-inhibition control samples. To determine IC50 values, the inhibition curves (Pinh versus inhibitor concentration) were fitted by 4 parameter sigmoid dose-response model using XLfit software (IDBS).

BTK = BTK (Homo sapiens, UniProt Q06187); experiment: Biochemical kinase assay (Nanosyn, micro-fluidic detection), BTK; conditions: 12 concentrations, 3 hours incubation, 1 uM peptide substrate
Chain of BTK (Q06187 whole entry): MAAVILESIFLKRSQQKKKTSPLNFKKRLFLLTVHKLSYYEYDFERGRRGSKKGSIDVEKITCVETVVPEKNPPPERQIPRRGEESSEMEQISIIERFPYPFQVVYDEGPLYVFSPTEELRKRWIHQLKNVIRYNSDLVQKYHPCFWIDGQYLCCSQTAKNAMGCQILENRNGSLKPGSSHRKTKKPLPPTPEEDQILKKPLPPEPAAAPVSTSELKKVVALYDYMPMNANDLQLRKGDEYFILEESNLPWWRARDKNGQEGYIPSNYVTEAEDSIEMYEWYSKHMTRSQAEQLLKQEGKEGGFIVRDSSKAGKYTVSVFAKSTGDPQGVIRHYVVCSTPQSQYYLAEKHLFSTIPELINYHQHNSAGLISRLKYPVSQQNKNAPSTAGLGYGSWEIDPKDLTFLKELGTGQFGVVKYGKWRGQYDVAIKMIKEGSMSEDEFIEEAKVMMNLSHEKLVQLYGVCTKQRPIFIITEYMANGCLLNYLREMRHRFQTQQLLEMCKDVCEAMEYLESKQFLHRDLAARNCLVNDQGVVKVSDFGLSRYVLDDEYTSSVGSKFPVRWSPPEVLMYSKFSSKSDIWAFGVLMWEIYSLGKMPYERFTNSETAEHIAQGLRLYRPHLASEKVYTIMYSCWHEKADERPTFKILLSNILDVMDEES
Procedure: as §1

TEC = biological target: T2, TEC (Homo sapiens, UniProt P42680); experiment: Biochemical kinase assay (Nanosyn, micro-fluidic detection), TEC; conditions: 12 concentrations, 3 hours incubation, 1 uM peptide substrate
T2 sequence (P42680 1-631): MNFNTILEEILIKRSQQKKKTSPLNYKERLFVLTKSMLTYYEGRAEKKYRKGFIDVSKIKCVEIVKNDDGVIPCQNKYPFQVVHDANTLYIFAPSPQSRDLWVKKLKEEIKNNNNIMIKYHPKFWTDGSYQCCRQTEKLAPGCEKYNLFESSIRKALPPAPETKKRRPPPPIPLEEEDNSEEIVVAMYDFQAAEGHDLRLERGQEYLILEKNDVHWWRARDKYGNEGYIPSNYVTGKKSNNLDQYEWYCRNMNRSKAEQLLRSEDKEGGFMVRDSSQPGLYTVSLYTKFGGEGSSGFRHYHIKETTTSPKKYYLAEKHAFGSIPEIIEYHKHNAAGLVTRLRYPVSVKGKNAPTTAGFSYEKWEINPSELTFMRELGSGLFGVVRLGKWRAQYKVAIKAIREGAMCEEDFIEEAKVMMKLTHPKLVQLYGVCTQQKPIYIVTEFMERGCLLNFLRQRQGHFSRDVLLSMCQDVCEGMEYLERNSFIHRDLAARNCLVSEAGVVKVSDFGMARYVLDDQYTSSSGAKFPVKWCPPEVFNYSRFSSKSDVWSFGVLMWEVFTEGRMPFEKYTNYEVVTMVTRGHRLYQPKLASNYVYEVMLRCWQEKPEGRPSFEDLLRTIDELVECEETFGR
Procedure: as §1

TXK = biological target: T3, TXK (Homo sapiens, UniProt P42681); experiment: Biochemical kinase assay (Nanosyn, micro-fluidic detection), TXK; conditions: for IC50: 12 concentrations, 3 hours incubation, 1 uM peptide substrate; for ITK/TXK Ratio: ratio of ITK IC50 to TXK IC50
T3 sequence (P42681 1-527): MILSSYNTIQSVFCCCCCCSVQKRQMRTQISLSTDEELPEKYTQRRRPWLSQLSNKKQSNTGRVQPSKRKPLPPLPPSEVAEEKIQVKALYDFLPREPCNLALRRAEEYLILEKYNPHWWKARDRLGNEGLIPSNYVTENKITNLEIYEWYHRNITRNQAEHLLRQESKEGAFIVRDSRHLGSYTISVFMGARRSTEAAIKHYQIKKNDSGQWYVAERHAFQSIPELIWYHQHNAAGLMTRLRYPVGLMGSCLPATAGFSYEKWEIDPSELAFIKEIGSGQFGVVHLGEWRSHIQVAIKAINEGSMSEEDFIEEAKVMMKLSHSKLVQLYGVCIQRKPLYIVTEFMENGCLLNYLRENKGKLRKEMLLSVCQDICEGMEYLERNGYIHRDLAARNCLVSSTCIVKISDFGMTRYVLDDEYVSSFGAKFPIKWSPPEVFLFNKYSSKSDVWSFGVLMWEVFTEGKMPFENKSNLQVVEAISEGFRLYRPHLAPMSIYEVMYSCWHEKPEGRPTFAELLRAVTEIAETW
Procedure: as §1

Q: What does the source list for `C=CC(=O)N1CC[C@]2(C1)C[C@H](n1c(NC(=O)c3cc(C)no3)nc3cc(CN4CCCC4)ccc31)C2` [Compound 1]?
A: IC50 (ITK): 127 nM; IC50 (BTK): 16.1 nM; IC50 (TEC): 95.5 nM; IC50 (TXK): 5.28 nM; ITK/TXK Ratio (TXK): 24.1

Q: Which results are given for `C=CC(=O)N1CC[C@]2(C1)C[C@H](n1c(NC(=O)c3cc(C)no3)nc3cc(CN4CCOCC4)ccc31)C2` [Compound 2]?
A: IC50 (ITK): 40.9 nM; IC50 (BTK): 14.7 nM; IC50 (TEC): 11.1 nM; IC50 (TXK): 3.02 nM; ITK/TXK Ratio (TXK): 13.5

Q: `C=CC(=O)N1CC[C@]2(C1)C[C@H](n1c(NC(=O)c3cc(C)no3)nc3cc(CN4CCN(C)CC4)ccc31)C2` [Compound 3] was tested. Which IC50 (ITK) did it give?
A: The IC50 was 80.9 nM.

Q: And the IC50 (BTK)?
A: The IC50 was 17.9 nM.

Q: What about the IC50 (TEC) of the same molecule?
A: The IC50 was 43.9 nM.

Q: What about the IC50 (TXK) of the same molecule?
A: Its IC50 is 3.48 nM.

Q: And the “ITK/TXK Ratio” value (TXK)?
A: Its value is 23.2.

Q: Which IC50 (ITK) does the source give for `C=CC(=O)N1CC[C@]2(C1)C[C@H](n1c(NC(=O)c3cc(C(C)C)no3)nc3cc(CN4CCCC4)ccc31)C2` [Compound 4] here?
A: Its IC50 is 553 nM.

Q: What about the IC50 (BTK) of the same molecule?
A: The IC50 was 12 nM.

Q: What about the IC50 (TEC) of the same molecule?
A: Its IC50 is 96.3 nM.

Q: What about the IC50 (TXK) of the same molecule?
A: Its IC50 is 1.42 nM.

Q: And the “ITK/TXK Ratio” value (TXK)?
A: The value was 390.

Q: With `C=CC(=O)N1CC[C@]2(C1)C[C@H](n1c(NC(=O)c3cc(C4CCC4)no3)nc3cc(CN4CCCC4)ccc31)C2` [Compound 5] as the molecule, how does the IC50 (ITK) read?
A: The IC50 was 576 nM.

Q: And the IC50 (BTK)?
A: The IC50 was 7.65 nM.

Q: And the IC50 (TEC)?
A: Its IC50 is 50.5 nM.

Q: And the IC50 (TXK)?
A: The IC50 was 1.25 nM.

Q: And the “ITK/TXK Ratio” value (TXK)?
A: The value was 461.

Q: How did the IC50 (ITK) turn out when `C=CC(=O)N1CC[C@]2(C1)C[C@H](n1c(NC(=O)c3cc(C4CCCCC4)no3)nc3cc(CN4CCCC4)ccc31)C2` [Compound 6] was run?
A: The IC50 was over 1000 nM.

Q: What about the IC50 (BTK) of the same molecule?
A: The IC50 was 10.1 nM.

Q: What about the IC50 (TEC) of the same molecule?
A: The IC50 was 105 nM.

Q: What about the IC50 (TXK) of the same molecule?
A: Its IC50 is 1.78 nM.

Q: And the “ITK/TXK Ratio” value (TXK)?
A: The value was over 561.

Q: Which IC50 (ITK) does the source give for `C=CC(=O)N1CC[C@]2(C1)C[C@H](n1c(NC(=O)c3cc(C(C)(C)C)no3)nc3cc(CN4CCCC4)ccc31)C2` [Compound 7] here?
A: The IC50 was 536 nM.

Q: And the IC50 (BTK)?
A: Its IC50 is 59.7 nM.

Q: And the IC50 (TEC)?
A: Its IC50 is 529 nM.

Q: And the IC50 (TXK)?
A: The IC50 was 5.04 nM.

Q: With `C=CC(=O)N1CC[C@]2(C1)C[C@H](n1c(NC(=O)c3cc(-c4ccccc4)no3)nc3cc(CN4CCCC4)ccc31)C2` [Compound 8] as the molecule, how does the IC50 (ITK) read?
A: The IC50 was 369 nM.

Q: And the IC50 (BTK)?
A: The IC50 was 25.7 nM.

Q: What about the IC50 (TEC) of the same molecule?
A: Its IC50 is 136 nM.

Q: What about the IC50 (TXK) of the same molecule?
A: The IC50 was 1.97 nM.

Q: What about the “ITK/TXK Ratio” value (TXK) of the same molecule?
A: The value was 187.
